Values of other authors in PubChem BioAssay AID1259409 (Chemical Carcinogenesis Research Information System (CCRIS), 2018).

Test system: rodent chemically induced tumor inhibition, incidence and multiplicity
Experiment: CCRIS tumor inhibitor studies
Settings: Carcinogen: DIETHYLNITROSAMINE, 55-18-5, N-METHYL-N-NITROSOUREA, 684-93-5, N-BUTYL-N-(4-HYDROXYBUTYL)NITROSAMINE, 3817-11-6, 1,2-DIM, Carcinogen: DIETHYLNITROSAMINE, 55-18-5, N-METHYL-N-NITROSOUREA, 684-93-5, N-BUTYL-N-(4-HYDROXYBUTYL)NITROSAMINE, 3817-11-6, 1,2-DIM, Dose [Inhibitor]: 0, 0.3% IN DIET FOR 23 WK BEGINNING 1 WK POST CARCINOGEN TREATMENT (STUDY DURATION: 28 WK), Route [Inhibitor]: ORAL, Species: RAT, Strain/Sex: F344/MALE, Dose [Carcinogen]: 100 MG/KG BW DEN ONCE, 20 MG/KG BW MNU ONCE ON DAYS 6,9, AND 12, 0.05% BBN IN DRINKING WATER FOR FIRST TWO WK, 40 MG/KG, Dose [Carcinogen]: 100 MG/KG BW DEN ONCE, 20 MG/KG BW MNU ONCE ON DAYS 6,9, AND 12, 0.05% BBN IN DRINKING WATER FOR FIRST TWO WK, 40 MG/KG, Promoter: NONE USED

C[C@]12CC[C@H](O)CC1=CC[C@@H]1[C@@H]2CC[C@]2(C)C(=O)CC[C@@H]12
tumour outcome (control, treated, inhibition, significance) (Target Tissue: Type of Lesion: LIVER: HEPATOCELLULAR ADENOMA, HYPERPLASTIC NODULES): 2/20 (10%), 15/20 (75%), -650%, p<0.01 | tumour outcome (control, treated, inhibition, significance) (Target Tissue: Type of Lesion: LUNG: ADENOCARCINOMA): 1/20 (5%), 0/20 (0%), 100%, not significant | tumour outcome (control, treated, inhibition, significance) (Target Tissue: Type of Lesion: LUNG: ADENOMA): 8/20 (40%), 5/20 (25%), 38%, not significant | outcome (Target Tissue: Type of Lesion: SMALL INTESTINE: ADENOCARCINOMA): 2/20 (10%), 0/20 (o%), 100%, not significant | tumour outcome (control, treated, inhibition, significance) (Target Tissue: Type of Lesion: SMALL INTESTINE: ADENOMA): 5/20 (25%), 2/20 (10%), 60%, not significant | tumour outcome (control, treated, inhibition, significance) (Target Tissue: Type of Lesion: THYROID: FOLLICULAR ADENOMA): 6/20 (30%), 1/20 (5%), 83%, p<0.05 | tumour outcome (control, treated, inhibition, significance) (Target Tissue: Type of Lesion: THYROID: FOLLICULAR CARCINOMA): 1/20 (5%), 2/20 (10%), -100%, not significant
